US20230382949A1 (HEPTARES THERAPEUTICS LIMITED, priority 2020, published 2023)
Like-named read-outs stand apart in the source and are kept apart here. Starred links: 1 amine or outer side, 2 acyl side, 3 side chain; linkers in the order of their positions; H or OH if unused. Non-standard residues stand in square brackets, D forms with d. Residues, ends and D or L forms follow the SMILES beside them. *: point of attachment. Ala(piperidin-4-yl) = O=C([C@H](CC1CCN([*:3])CC1)N[*:1])[*:2]; Malonyl(2,2-Me2,histaminyl) = CC(C)(C(=O)NCCc1cnc[nH]1)C(=O)*; dBip = N[C@H](Cc1ccc(-c2ccccc2)cc1)C(=O)O; Oic = O=C(O)[C@@H]1C[C@@H]2CCCC[C@@H]2N1; Phe(4-Br) = N[C@@H](Cc1ccc(Br)cc1)C(=O)O; NMeH = CN[C@@H](Cc1c[nH]cn1)C(=O)O; X1 = CC(C)(C(=O)NCCc1ccccc1)C(=O)*; hArg = N=C(N)NCCCC[C@H](N)C(=O)O; tBuAla = CC(C)(C)C[C@H](N)C(=O)O; 3Pal = N[C@@H](Cc1cccnc1)C(=O)O; Pip = O=C(O)[C@@H]1CCCCN1; Aib = CC(C)(N)C(=O)O

Legend:
[1] = target: T1, human Apelin receptor (Homo sapiens, UniProt P35414); experiment: cAMP accumulation assay (HTRF), functional agonism of human Apelin receptors; type: cell-based; conditions: for Emax: CHO
T1 sequence (P35414 1-380): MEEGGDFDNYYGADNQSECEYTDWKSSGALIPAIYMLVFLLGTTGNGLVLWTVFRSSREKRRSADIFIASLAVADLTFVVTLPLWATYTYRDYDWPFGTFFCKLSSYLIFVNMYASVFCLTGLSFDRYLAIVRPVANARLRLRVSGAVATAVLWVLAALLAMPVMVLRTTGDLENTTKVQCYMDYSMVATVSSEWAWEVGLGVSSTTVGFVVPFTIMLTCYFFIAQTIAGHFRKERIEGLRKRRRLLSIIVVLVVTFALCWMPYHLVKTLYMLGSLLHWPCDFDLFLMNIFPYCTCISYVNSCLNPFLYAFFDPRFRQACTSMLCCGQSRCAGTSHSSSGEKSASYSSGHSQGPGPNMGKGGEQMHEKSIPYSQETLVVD
From the text: cAMP functional assay. cAMP production was quantified using the Homogeneous Time-Resolved Fluorescence (HTRF) cAMP dynamic-2 assay (Cisbio, France).

[2] = target: T2, human Apelin receptor (Homo sapiens, UniProt P35414); experiment: β-arrestin accumulation assay, functional agonism of human Apelin receptors; type: cell-based
T2 construct: host or cells: CHO-K1 cells
Method in brief: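 After 16 h at 37° C., cells were exposed to increasing agonist concentrations in serum-free medium for 90 min at 37° C. Detection reagent added for 60 min in the dark; receptor activation read by fluorescence and EC50 derived from concentration-response curves.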
T2 sequence (P32121 whole entry partner, one chain of several): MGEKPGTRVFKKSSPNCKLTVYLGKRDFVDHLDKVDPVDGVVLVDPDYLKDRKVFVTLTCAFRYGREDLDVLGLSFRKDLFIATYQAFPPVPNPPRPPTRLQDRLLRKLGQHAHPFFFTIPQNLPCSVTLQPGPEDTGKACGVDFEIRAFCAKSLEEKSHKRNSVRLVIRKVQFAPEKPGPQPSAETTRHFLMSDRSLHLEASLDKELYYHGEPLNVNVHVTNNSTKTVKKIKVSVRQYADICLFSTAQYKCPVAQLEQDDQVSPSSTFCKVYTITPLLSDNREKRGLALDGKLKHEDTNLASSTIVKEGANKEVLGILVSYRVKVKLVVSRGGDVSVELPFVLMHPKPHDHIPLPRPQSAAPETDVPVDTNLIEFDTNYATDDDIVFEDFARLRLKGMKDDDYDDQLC

[3] = Human Apelin agonist cAMP assay, CHO cells stably expressing the human Apelin receptor, 3 uM forskolin
[4] = pEC50, Human Apelin agonist cAMP assay, CHO cells stably expressing the human Apelin receptor, 3 uM forskolin

Question: How did the Emax ([1]; read-out: Emax) turn out when `CC(C)C[C@H](NC(=O)[C@@H](CCCNC(=N)N)NC(=O)[C@@H]1CCCCN1C(=O)[C@H](CCCCNC(=N)N)NC(=O)[C@H](CCC(N)=O)NC(=O)C(C)(C)C(=O)NCCc1cnc[nH]1)C(=O)NC(C)(C)C(=O)N[C@@H](Cc1cccnc1)C(=O)N[C@@H](CC1CCNCC1)C(=O)NCC(=O)N1[C@H](C(=O)N[C@@H](Cc2ccc(Br)cc2)C(=O)N2CCC[C@H]2C(=O)N[C@H](Cc2ccc(-c3ccccc3)cc2)C(=O)O)C[C@@H]2CCCC[C@@H]21` [Example 56] ({Malonyl(2,2-Me2,histaminyl)}-Q[hArg][Pip][dR]L[Aib][3Pal][Ala(piperidin-4-yl)]G[Oic][Phe(4-Br)]P[dBip]-OH) was run?
Answer: 68.1%

Question: What about the EC50 ([1]; read-out: pEC50 (converted)) of the same compound?
Answer: 20 nM

Question: What about the EC50 [2] of the same compound?
Answer: > 10 µM

Question: With `CC(C)C[C@H](NC(=O)[C@@H](CCCNC(=N)N)NC(=O)C1C2CC2CN1C(=O)[C@H](CCCCNC(=N)N)NC(=O)[C@H](CCC(N)=O)NC(=O)[C@@H](CCCNC(=N)N)NC(=O)C(C)(C)C(=O)NCCc1c[nH]cn1)C(=O)NC(C)(C)C(=O)N[C@@H](Cc1c[nH]cn1)C(=O)N[C@@H](CC1CCNCC1)C(=O)NCC(=O)N1[C@H](C(=O)N[C@@H](Cc2ccc(Br)cc2)C(=O)N2CCC[C@H]2C(=O)N[C@H](Cc2ccc(-c3ccccc3)cc2)C(=O)O)C[C@@H]2CCCC[C@@H]21` (single isomer, unassigned) [37 Isomer 1] as the compound, how does the Emax [1, 3] read?
Answer: 68.6%

Question: What about the EC50 [1, 4] of the same compound?
Answer: 10 nM

Question: What about the EC50 [2] of the same compound?
Answer: > 100 µM

Question: `CC(C)C[C@H](NC(=O)[C@@H](CCCNC(=N)N)NC(=O)[C@@H]1CCCN1C(=O)[C@H](CCCCNC(=N)N)NC(=O)[C@H](CCC(N)=O)NC(=O)C(C)(C)C(=O)NCCc1ccccc1)C(=O)NC(C)(C)C(=O)N[C@@H](Cc1c[nH]cn1)C(=O)N[C@@H](CC1CCNCC1)C(=O)NCC(=O)N1[C@H](C(=O)N[C@@H](Cc2ccc(Br)cc2)C(=O)N2CCC[C@H]2C(=O)N[C@H](Cc2ccc(-c3ccccc3)cc2)C(=O)O)C[C@@H]2CCCC[C@@H]21` [Example 45] (X1-Q[hArg]P[dR]L[Aib]H[Ala(piperidin-4-yl)]G[Oic][Phe(4-Br)]P[dBip]-OH) was tested. Which Emax [1, 3] did it give?
Answer: 59%

Question: And the EC50 [1, 4]?
Answer: 39.8 nM

Question: And the EC50 [2]?
Answer: > 10 µM

Question: With `CC(C)C[C@H](NC(=O)[C@@H](CCCNC(=N)N)NC(=O)[C@@H]1C[C@@H]2CCCC[C@@H]2N1C(=O)[C@H](CCCCNC(=N)N)NC(=O)[C@H](CCC(N)=O)NC(=O)[C@@H](CCCNC(=N)N)NC(=O)C(C)(C)C(=O)NCCc1c[nH]cn1)C(=O)NC(C)(C)C(=O)N[C@@H](Cc1c[nH]cn1)C(=O)N[C@@H](CC1CCNCC1)C(=O)NCC(=O)N1[C@H](C(=O)N[C@@H](Cc2ccc(Br)cc2)C(=O)N2CCC[C@H]2C(=O)N[C@H](Cc2ccc(-c3ccccc3)cc2)C(=O)O)C[C@@H]2CCCC[C@@H]21` [Example 10] ({Malonyl(2,2-Me2,histaminyl)}-[dR]Q[hArg][Oic][dR]L[Aib]H[Ala(piperidin-4-yl)]G[Oic][Phe(4-Br)]P[dBip]-OH) as the compound, how does the Emax [1, 3] read?
Answer: 52.5%

Question: What about the EC50 [1, 4] of the same compound?
Answer: 20 nM

Question: What about the EC50 [2] of the same compound?
Answer: > 10 µM

Question: Which Emax [1, 3] does the source give for `CC(C)(C)C[C@H](NC(=O)[C@@H](CCCNC(=N)N)NC(=O)[C@@H]1CCCN1C(=O)[C@H](CCCCNC(=N)N)NC(=O)[C@H](CCC(N)=O)NC(=O)[C@@H](CCCNC(=N)N)NC(=O)C(C)(C)C(=O)NCCc1c[nH]cn1)C(=O)NC(C)(C)C(=O)N[C@@H](Cc1c[nH]cn1)C(=O)N[C@@H](CC1CCNCC1)C(=O)NCC(=O)N1[C@H](C(=O)N[C@@H](Cc2ccc(Br)cc2)C(=O)N2CCC[C@H]2C(=O)N[C@H](Cc2ccc(-c3ccccc3)cc2)C(=O)O)C[C@@H]2CCCC[C@@H]21` [Example 13] ({Malonyl(2,2-Me2,histaminyl)}-[dR]Q[hArg]P[dR][tBuAla][Aib]H[Ala(piperidin-4-yl)]G[Oic][Phe(4-Br)]P[dBip]-OH) here?
Answer: 72.9%

Question: And the EC50 [1, 4]?
Answer: 25.1 nM

Question: And the EC50 [2]?
Answer: > 10 µM

Question: Which results are given for `CC(C)C[C@H](NC(=O)[C@H](CCCNC(=N)N)NC(=O)[C@@H]1CCCN1C(=O)[C@@H](CCCNC(=N)N)NC(=O)[C@H](CCC(N)=O)NC(=O)C(C)(C)C(=O)NCCc1cnc[nH]1)C(=O)NC(C)(C)C(=O)N(C)[C@@H](Cc1c[nH]cn1)C(=O)N[C@@H](CC1CCNCC1)C(=O)NCC(=O)N1[C@H](C(=O)N[C@@H](Cc2ccc(Br)cc2)C(=O)N2CCC[C@H]2C(=O)N[C@H](Cc2ccc(-c3ccccc3)cc2)C(=O)O)C[C@@H]2CCCC[C@@H]21` [Example 44] ({Malonyl(2,2-Me2,histaminyl)}-Q[dR]PRL[Aib][NMeH][Ala(piperidin-4-yl)]G[Oic][Phe(4-Br)]P[dBip]-OH)?
Answer: Emax [1, 3]: 34.7%; EC50 [1, 4]: 50.1 nM; EC50 [2]: > 10 µM
